Experimental data: publication PMC11233931, “Remodeling tumor‐associated macrophage for anti‐cancer effects by rational design of irreversible inhibition of mitogen‐activated protein kinase‐activated protein kinase 2” (MedComm, 2024)
Where two headings read alike, the source gives them in different places.

Assays:
Assay in all cases: Eurofins kinase selectivity profile against 380 other human recombinant kinases (Table S2)
Format in all cases: biochemical
[1] = target: T1, 380 human recombinant protein kinases (Homo sapiens, UniProt Q8IVW4); conditions: CDKL3(h), read-out: Inhibition rate
T1 construct: purchased Eurofins (Celle Lévescault)
T1 sequence (Q8IVW4 whole entry): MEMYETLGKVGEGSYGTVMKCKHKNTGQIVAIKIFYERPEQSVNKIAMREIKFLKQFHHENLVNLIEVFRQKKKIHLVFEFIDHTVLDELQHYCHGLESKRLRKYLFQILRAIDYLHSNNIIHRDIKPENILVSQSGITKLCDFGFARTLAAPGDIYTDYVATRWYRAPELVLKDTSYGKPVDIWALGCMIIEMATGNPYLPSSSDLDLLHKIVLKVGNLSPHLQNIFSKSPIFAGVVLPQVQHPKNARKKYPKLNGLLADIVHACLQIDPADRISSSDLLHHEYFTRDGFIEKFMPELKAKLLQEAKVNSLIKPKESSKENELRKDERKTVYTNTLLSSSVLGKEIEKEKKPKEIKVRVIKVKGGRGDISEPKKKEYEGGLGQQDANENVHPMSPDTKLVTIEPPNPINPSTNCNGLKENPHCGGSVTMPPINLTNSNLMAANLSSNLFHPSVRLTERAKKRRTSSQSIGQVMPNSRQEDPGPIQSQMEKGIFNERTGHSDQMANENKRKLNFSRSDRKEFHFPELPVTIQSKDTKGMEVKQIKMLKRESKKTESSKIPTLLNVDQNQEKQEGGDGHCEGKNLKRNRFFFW
Method in brief: (§1)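 Selectivity panel of 380 human recombinant protein kinases, screened by Eurofins at a range of concentrations.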

[2] = target: T2, 380 human recombinant protein kinases (Homo sapiens, UniProt P42345); conditions: read-out: Inhibition rate; for inhibition at 0.01 µM: 10 nM; for inhibition at 0.1 µM: 100 nM; for inhibition at 1 µM: 1000 nM
T2 construct: purchased Eurofins (Celle Lévescault)
Method in brief: as §1

[3] = target: T3, 380 human recombinant protein kinases (Homo sapiens, UniProt Q96PN8); conditions: TSSK3(h), read-out: Inhibition rate (%)
T3 construct: purchased Eurofins (Celle Lévescault)
T3 sequence (Q96PN8 1-268): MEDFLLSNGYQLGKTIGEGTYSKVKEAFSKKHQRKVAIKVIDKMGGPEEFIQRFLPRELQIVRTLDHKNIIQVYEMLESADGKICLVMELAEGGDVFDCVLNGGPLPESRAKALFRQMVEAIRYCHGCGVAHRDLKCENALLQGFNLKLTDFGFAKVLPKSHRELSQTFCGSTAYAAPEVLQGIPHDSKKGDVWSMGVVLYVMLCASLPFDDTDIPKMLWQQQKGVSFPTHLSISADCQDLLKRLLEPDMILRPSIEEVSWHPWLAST
Method in brief: as §1

[4] = target: T4, 380 human recombinant protein kinases (Homo sapiens, UniProt Q8N5S9); conditions: CaMKK1(h), read-out: Inhibition rate
T4 construct: purchased Eurofins (Celle Lévescault)
Method in brief: as §1

[5] = target: T5, 380 human recombinant protein kinases (Homo sapiens, UniProt Q9UK32); conditions: Rsk4(h), read-out: Inhibition rate (%)
T5 construct: purchased Eurofins (Celle Lévescault)
T5 sequence (Q9UK32 whole entry): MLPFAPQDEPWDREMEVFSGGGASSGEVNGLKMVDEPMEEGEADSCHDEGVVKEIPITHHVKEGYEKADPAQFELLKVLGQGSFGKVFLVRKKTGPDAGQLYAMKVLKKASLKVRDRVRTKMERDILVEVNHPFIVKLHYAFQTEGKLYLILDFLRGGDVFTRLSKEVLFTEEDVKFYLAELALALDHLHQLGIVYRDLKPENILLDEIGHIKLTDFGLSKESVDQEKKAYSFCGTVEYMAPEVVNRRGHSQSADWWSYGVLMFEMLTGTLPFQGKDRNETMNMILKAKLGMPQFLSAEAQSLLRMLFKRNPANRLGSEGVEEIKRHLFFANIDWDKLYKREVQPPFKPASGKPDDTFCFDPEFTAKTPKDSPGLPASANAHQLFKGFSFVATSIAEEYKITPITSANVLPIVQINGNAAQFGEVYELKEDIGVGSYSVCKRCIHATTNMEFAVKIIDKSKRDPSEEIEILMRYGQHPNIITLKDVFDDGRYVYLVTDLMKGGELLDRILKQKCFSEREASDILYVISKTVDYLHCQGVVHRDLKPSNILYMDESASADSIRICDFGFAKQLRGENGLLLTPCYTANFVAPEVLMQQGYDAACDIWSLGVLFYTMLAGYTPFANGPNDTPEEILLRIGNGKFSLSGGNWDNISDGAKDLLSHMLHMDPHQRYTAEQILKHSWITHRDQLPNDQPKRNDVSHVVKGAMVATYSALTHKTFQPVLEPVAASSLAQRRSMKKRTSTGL
Method in brief: as §1

[6] = target: T6, 380 human recombinant protein kinases (Homo sapiens, UniProt O75716); conditions: STK16(h), read-out: Inhibition rate (%)
T6 construct: purchased Eurofins (Celle Lévescault)
Method in brief: as §1

[7] = target: T7, 380 human recombinant protein kinases (Homo sapiens, UniProt P42336, E545K); conditions: PI3 Kinase (p110α(E545K)/p85α)(h), read-out: Inhibition rate (%)
T7 construct: purchased Eurofins (Celle Lévescault)
T7 sequence (P42336 whole entry E545K): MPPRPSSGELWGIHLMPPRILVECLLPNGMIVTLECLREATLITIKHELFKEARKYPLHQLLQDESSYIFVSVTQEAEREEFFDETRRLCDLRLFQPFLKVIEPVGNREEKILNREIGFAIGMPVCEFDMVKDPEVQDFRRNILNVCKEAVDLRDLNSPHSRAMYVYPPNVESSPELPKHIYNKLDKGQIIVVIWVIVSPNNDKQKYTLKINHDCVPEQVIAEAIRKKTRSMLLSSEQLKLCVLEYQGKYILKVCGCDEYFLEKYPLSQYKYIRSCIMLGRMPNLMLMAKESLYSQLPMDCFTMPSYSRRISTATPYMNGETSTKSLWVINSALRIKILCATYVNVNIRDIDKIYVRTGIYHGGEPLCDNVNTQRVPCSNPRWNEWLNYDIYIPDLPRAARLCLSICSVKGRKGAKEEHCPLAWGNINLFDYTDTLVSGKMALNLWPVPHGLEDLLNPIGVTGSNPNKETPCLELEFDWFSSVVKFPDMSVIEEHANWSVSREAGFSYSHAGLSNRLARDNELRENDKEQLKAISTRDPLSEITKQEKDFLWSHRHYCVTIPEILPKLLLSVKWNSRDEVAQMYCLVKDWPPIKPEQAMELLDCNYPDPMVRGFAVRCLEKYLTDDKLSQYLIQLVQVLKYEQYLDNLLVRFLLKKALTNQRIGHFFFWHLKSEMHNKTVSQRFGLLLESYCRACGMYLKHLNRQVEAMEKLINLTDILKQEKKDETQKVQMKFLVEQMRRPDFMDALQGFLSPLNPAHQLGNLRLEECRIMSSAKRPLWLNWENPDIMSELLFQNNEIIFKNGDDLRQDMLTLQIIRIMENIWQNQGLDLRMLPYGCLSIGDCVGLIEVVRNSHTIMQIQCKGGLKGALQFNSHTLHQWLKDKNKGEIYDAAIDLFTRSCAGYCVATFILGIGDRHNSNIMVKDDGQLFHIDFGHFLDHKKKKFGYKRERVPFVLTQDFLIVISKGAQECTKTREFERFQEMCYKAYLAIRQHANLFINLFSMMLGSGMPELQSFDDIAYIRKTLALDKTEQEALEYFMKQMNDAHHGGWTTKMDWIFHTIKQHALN
Method in brief: as §1

[8] = target: T8, 380 human recombinant protein kinases (Homo sapiens, UniProt Q86Y07); conditions: VRK2(h), read-out: Inhibition rate (%)
T8 construct: purchased Eurofins (Celle Lévescault)
T8 sequence (Q86Y07 whole entry): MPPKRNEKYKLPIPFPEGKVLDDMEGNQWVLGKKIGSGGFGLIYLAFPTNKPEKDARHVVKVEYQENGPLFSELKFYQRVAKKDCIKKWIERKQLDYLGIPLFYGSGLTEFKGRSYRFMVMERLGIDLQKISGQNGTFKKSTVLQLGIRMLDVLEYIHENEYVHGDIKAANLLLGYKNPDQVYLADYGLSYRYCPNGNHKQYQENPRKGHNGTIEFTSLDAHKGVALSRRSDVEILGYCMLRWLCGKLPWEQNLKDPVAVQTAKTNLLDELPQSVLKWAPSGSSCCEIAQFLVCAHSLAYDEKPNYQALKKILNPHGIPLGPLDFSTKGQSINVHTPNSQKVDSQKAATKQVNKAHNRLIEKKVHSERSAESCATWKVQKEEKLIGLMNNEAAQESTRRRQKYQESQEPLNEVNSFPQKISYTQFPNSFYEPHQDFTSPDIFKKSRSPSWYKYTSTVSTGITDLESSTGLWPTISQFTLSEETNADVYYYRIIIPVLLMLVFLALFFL
Method in brief: as §1

[9] = target: T9, 380 human recombinant protein kinases (Homo sapiens, UniProt P00519, H396P); conditions: Abl (H396P) (h), read-out: Inhibition rate
T9 construct: purchased Eurofins (Celle Lévescault)
Method in brief: as §1

[10] = target: T10, 380 human recombinant protein kinases (Homo sapiens, UniProt O00238); conditions: ALK6(h), read-out: Inhibition rate
T10 construct: purchased Eurofins (Celle Lévescault)
T10 sequence (O00238 14-502): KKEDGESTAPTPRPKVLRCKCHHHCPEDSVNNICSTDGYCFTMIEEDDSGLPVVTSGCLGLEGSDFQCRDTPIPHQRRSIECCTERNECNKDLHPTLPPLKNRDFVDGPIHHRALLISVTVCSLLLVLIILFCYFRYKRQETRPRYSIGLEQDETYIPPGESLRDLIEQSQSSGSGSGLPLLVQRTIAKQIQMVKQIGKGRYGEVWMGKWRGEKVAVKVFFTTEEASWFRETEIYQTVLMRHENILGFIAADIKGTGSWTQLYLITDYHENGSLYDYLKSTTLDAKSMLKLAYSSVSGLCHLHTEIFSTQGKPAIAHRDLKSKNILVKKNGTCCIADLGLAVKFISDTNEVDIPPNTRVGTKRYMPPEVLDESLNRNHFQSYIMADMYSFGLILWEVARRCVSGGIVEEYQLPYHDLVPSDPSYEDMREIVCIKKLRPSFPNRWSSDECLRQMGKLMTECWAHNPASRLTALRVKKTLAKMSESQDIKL
Method in brief: as §1

[11] = target: T11, 380 human recombinant protein kinases (Homo sapiens, UniProt P50613); conditions: CDK7/cyclinH/MAT1(h), read-out: Inhibition rate
T11 construct: purchased Eurofins (Celle Lévescault)
T11 sequence (P50613 whole entry): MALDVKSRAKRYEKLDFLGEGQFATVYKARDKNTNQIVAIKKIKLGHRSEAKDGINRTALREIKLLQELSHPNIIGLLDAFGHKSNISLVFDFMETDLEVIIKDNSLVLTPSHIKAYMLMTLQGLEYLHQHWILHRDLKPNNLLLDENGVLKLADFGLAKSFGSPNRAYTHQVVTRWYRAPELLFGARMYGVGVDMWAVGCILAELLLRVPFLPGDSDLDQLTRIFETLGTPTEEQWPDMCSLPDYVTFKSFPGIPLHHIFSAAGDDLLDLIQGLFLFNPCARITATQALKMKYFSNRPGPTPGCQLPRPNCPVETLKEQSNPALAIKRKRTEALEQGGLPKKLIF
Method in brief: as §1

[12] = target: T12, 380 human recombinant protein kinases (Homo sapiens, UniProt Q7KZI7); conditions: PAR-1Bα(h), read-out: Inhibition rate
T12 construct: purchased Eurofins (Celle Lévescault)
Method in brief: as §1

[13] = target: T13, 380 human recombinant protein kinases (Homo sapiens, UniProt P12931); conditions: for inhibition at 0.01 µM: 10 nM; for inhibition at 0.1 µM: 100 nM; for inhibition at 1 µM: 1000 nM
T13 construct: purchased Eurofins (Celle Lévescault)
Method in brief: as §1

[14] = target: T14, 380 human recombinant protein kinases (Homo sapiens, UniProt Q5TCX8); conditions: MLK4(h), read-out: Inhibition rate
T14 construct: purchased Eurofins (Celle Lévescault)
T14 sequence (Q5TCX8 whole entry): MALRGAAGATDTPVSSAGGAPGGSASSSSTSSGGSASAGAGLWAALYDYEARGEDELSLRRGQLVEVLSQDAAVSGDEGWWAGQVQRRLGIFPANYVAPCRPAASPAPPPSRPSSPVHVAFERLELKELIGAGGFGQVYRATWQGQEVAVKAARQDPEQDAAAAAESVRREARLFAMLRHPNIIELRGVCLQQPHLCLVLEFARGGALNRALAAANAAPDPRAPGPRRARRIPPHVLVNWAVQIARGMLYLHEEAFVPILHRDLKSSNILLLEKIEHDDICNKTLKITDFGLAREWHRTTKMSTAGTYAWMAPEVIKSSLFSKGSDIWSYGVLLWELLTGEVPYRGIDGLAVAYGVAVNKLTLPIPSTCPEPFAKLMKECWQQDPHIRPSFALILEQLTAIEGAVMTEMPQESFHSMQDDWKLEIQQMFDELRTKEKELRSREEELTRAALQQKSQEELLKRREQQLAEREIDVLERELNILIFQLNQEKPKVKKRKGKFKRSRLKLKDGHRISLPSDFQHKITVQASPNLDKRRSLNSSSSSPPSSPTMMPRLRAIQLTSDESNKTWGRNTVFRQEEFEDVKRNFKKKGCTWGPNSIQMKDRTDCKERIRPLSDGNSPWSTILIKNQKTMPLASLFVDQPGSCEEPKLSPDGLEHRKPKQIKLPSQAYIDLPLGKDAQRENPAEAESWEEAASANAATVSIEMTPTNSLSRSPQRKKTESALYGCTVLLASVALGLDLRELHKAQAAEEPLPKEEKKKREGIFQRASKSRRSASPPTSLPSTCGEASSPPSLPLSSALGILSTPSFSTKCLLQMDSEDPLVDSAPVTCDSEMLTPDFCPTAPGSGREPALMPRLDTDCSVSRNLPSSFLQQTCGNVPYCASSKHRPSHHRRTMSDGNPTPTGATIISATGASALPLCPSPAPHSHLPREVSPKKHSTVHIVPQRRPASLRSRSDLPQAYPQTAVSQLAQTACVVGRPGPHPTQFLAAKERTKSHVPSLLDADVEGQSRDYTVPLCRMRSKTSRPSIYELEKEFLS
Method in brief: as §1

[15] = Src(1-530)(h), read-out: Inhibition rate (%)
[16] = cSRC(h), read-out: Inhibition rate

For `C=CC(=O)Nc1cc(-c2cc(-c3cc4c([nH]3)CCNC4=O)ccn2)ccc1OC(F)(F)F` [compound 11], the inhibition at 0.01 µM ([1]; 10 nM) was 52%, the inhibition at 0.1 µM ([1]; 100 nM) was 88% and the inhibition at 1 µM ([1]; 1000 nM) was 99%. The inhibition at 0.01 µM ([2]; mTOR(h)) was -1%, the inhibition at 0.1 µM ([2]; mTOR(h)) was 2% and the inhibition at 1 µM ([2]; mTOR(h)) was 7%. The inhibition at 0.01 µM ([2]; mTOR/FKBP12(h)) was 8%, the inhibition at 0.1 µM ([2]; mTOR/FKBP12(h)) was 12% and the inhibition at 1 µM ([2]; mTOR/FKBP12(h)) was 6%. It also gave an inhibition at 0.01 µM ([3]; 10 nM) of 0%, an inhibition at 0.1 µM ([3]; 100 nM) of 5% and an inhibition at 1 µM ([3]; 1000 nM) of -2%. The inhibition at 0.01 µM ([4]; 10 nM) was -7%, the inhibition at 0.1 µM ([4]; 100 nM) was 4% and the inhibition at 1 µM ([4]; 1000 nM) was 11%. For the same molecule, the inhibition at 0.01 µM ([5]; 10 nM) was -9%, the inhibition at 0.1 µM ([5]; 100 nM) was -4% and the inhibition at 1 µM ([5]; 1000 nM) was -13%. It also gave an inhibition at 0.01 µM ([6]; 10 nM) of 0%, an inhibition at 0.1 µM ([6]; 100 nM) of -3% and an inhibition at 1 µM ([6]; 1000 nM) of 11%. It also gave an inhibition at 0.01 µM ([7]; 10 nM) of 2%, an inhibition at 0.1 µM ([7]; 100 nM) of 2% and an inhibition at 1 µM ([7]; 1000 nM) of 4%. For the same molecule, the inhibition at 0.01 µM ([8]; 10 nM) was 7%, the inhibition at 0.1 µM ([8]; 100 nM) was 8% and the inhibition at 1 µM ([8]; 1000 nM) was 7%. It also gave an inhibition at 0.01 µM ([9]; 10 nM) of 6%, an inhibition at 0.1 µM ([9]; 100 nM) of 3% and an inhibition at 1 µM ([9]; 1000 nM) of 1%. It also gave an inhibition at 0.01 µM ([10]; 10 nM) of -13%, an inhibition at 0.1 µM ([10]; 100 nM) of 4% and an inhibition at 1 µM ([10]; 1000 nM) of 6%. It also gave an inhibition at 0.01 µM ([11]; 10 nM) of 5%, an inhibition at 0.1 µM ([11]; 100 nM) of -1% and an inhibition at 1 µM ([11]; 1000 nM) of -2%. It also gave an inhibition at 0.01 µM ([12]; 10 nM) of -6%, an inhibition at 0.1 µM ([12]; 100 nM) of -2% and an inhibition at 1 µM ([12]; 1000 nM) of -3%. The inhibition at 0.01 µM [13, 15] was 6%, the inhibition at 0.1 µM [13, 15] was 5% and the inhibition at 1 µM [13, 15] was -1%. The inhibition at 0.01 µM [13, 16] was 1%, the inhibition at 0.1 µM [13, 16] was 8% and the inhibition at 1 µM [13, 16] was 10%. It also gave an inhibition at 0.01 µM ([14]; 10 nM) of -2%, an inhibition at 0.1 µM ([14]; 100 nM) of -2% and an inhibition at 1 µM ([14]; 1000 nM) of -3%.
